Patent US20240108740A1, “THERAPEUTIC COMPOSITIONS INCLUDING SPN10 AND USES THEREOF” (Stealth BioTherapeutics Inc., priority 2022, published 2024)
Residues, ends and D or L forms follow the SMILES beside them.

Experiments:
high-fat fed rats = assay: Example 33: ROS production and redox state in rats fed a high-fat diet; type: in vivo, rat
Description: Ten rats maintained on a high-fat diet will receive daily intraperitoneal injections of peptide conjugates (1.5 mg/kg); aromatic-cationic peptides (an equivalent molar dose of aromatic-cationic peptide based on the concentration of the aromatic-cationic peptide administered in the peptide conjugate treatment group); SPN10(s) (an equivalent molar dose of SPN10 based on the concentration of SPN10 administered in the peptide conjugate treatment group); or SPN10(s) in combination with aromatic-cationic peptides (e.g., an equivalent molar dose of SPN10 based on the concentration of SPN10 administered in the peptide conjugate treatment group and an equivalent molar dose of aromatic-cationic peptide based on the concentration of aromatic-cationic peptide administered in the peptide conjugate treatment group) dissolved in phosphate-buffered saline. Dose response curves for peptide conjugates, aromatic-cationic peptides and SPN10(s) with or without aromatic-cationic peptides will be established in vitro and in vivo. Mitochondrial function will be measured according to the methods described herein.
Next, rats will be placed on a high-fat diet (60%) for six weeks with daily administration of vehicle, peptide conjugates, aromatic-cationic peptides, or SPN10(s) with or without aromatic-cationic peptides.
Protein homogenates will be prepared by homogenizing 100 mg of frozen muscle in a buffer containing 10 mM Tris, 1 mM EDTA, 1 mM EGTA, 2 mM NaOrthovanadate, 2 mM NaPyrophosphate, 5 mM NaF, and protease inhibitor cocktail (Complete), at pH 7.2. After homogenization, 1% Triton X-100 will be added to the protein suspension, which will be vortexed and incubated on ice for 5 minutes. Samples will be centrifuged at 10,000 rpm for 10 minutes to pellet the insoluble debris. For GSSG measurement, tissue will be homogenized in a solution containing 20 mM Methyl-2-vinylpyridinium triflate to scavenge all reduced thiols in the sample. Total GSH and GSSG will be measured using a commercially available GSH/GSSG assay (Oxis Research Products, Percipio Biosciences, Foster City, CA, U.S.A).
To establish a link between the increased mitochondrial H2O2 production brought about by high-fat diet and its effect on overall redox environment of skeletal muscle, both GSH and GSSG will be measured in skeletal muscle from standard chow-fed and high-fat fed rats 1) following a 10 hour fast, and 2) 1 hour after administration of a standard glucose load (oral gavage, 10 hour fasted).

Sprague-Dawley rats = assay: Example 38: acute renal injury caused by unilateral ureteral obstruction (UUO); type: in vivo, rat
Description: Sprague-Dawley rats will undergo unilateral ureteral ligation with a 4-0 silk suture through a midline abdominal incision under sterile conditions. Ureteral obstruction will be carried out by ligating the lower end of the left ureter, just above the ureterovesical junction. Peptide conjugates (1 mg/kg or 3 mg/kg; n=16); aromatic-cationic peptides (an equivalent molar dose of aromatic-cationic peptide based on the concentration of the aromatic-cationic peptide administered in the peptide conjugate treatment group); SPN10(s) (an equivalent molar dose of SPN10 based on the concentration of SPN10 administered in the peptide conjugate treatment group); SPN10(s) in combination with aromatic-cationic peptides (e.g., an equivalent molar dose of SPN10 based on the concentration of SPN10 administered in the peptide conjugate treatment group and an equivalent molar dose of aromatic-cationic peptide based on the concentration of aromatic-cationic peptide administered in the peptide conjugate treatment group); or control vehicle (n=16) will be administered intraperitoneally, one day prior to UUO and continuing for 14 days following UUO.
Renal Histology: Trichrome sections of paraffin embedded specimens will be examined by a board-certified pathologist (SVS, renal pathology specialist), and fibrosis scored on a scale of 0—+++.
Immunohistochemical Analysis: Immunohistochemical staining for macrophages will be carried out using a monoclonal antibody to ED-1 as previously described. Macrophages will be counted in 10 high-power fields (×400) by two independent investigators in a blinded fashion. Apoptosis will be measured by TUNEL assay as described in Example 37. The presence of fibroblasts will be examined using immunohistochemistry, as described above, using the DAKO #S100-A4 antibody (1:100 dilution). Antigen will be retrieved by incubating cells with Proteinase K for 20 minutes. The remaining immunoperoxidase protocol will be carried out according to routine procedures.
It is expected that S100-A4 staining will be present in spindle-shaped interstitial cells and round, inflammatory cells. Only spindle-shaped cells will be quantified. Staining for 8-OH dG will be done using Proteinase K for antigen retrieval and an antibody provided by the Japan Institute Control of Aging at a dilution of 1:200-1:500.
Polymerase Chain Reaction Analysis: Renal expression of heme oxygenase-1 (HO-1) will be measured by RT-PCR according to the following: Rat kidneys will be harvested and stored at −80° C. until use. Total RNA will be extracted using the Trizol (R)-Chloroform extraction procedure, and mRNA will be purified using the Oligotex mRNA extraction kit (Qiagen, Valencia, California, U.S.A.) according to manufacturer instructions. mRNA concentration and purity will be determined by measuring absorbance at 260 nm. RT-PCR will be performed using Qiagen One-step PCR kit (Qiagen, Valencia, California, U.S.A.) and an automated thermal cycler (ThermoHybrid, PX2). Thermal cycling will be carried out as follows: initial activation step for 15 minutes at 95° C. followed by 35 cycles of denaturation for 45 seconds at 94° C., annealing for 30 seconds at 60° C., extension for 60 seconds at 72° C. Amplification products will be separated on a 2% agarose gel electrophoresis, visualized by ethidium bromide staining, and quantified using Image J densitometric analysis software. GAPDH will be used as an internal control.

## N=C(N)NCCC[C@H](NC(=O)[C@@H](N)Cc1c[nH]c2ccccc12)C(=O)N[C@@H](Cc1c[nH]c2ccccc12)C(=O)N[C@@H](CCCCN)C(N)=O [SPN10, H-L-Trp-L-Arg-L-Trp-L-Lys-NH2] (H-WRWK-NH2)
high-fat fed rats; even following glucose ingestion
  GSH/GSSG ratio in skeletal muscle: preserve the GSH/GSSG ratio near control levels
high-fat fed rats; high-fat diet (60%) six weeks, daily administration
  mitochondrial H2O2 production during succinate and palmitoyl-carnitine supported respiration: reduction in mitochondrial H2O2 production
high-fat fed rats; in vitro and in vivo
  mitochondrial H2O2 production during succinate-supported respiration (dose response curves): reduction in mitochondrial H2O2 production
high-fat fed rats; skeletal muscle
  reduction in total cellular glutathione content (GSHt) by high-fat feeding: irrespective of treatment
Sprague-Dawley rats; 1 mg/kg
  tubular cell proliferation at the 1 mg/kg dose: decreased
Sprague-Dawley rats; 1 mg/kg (conjugate) or equivalent molar dose
  fibroblast infiltration in obstructed kidneys (FSP-1): significantly decrease the amount of fibroblast infiltration
Sprague-Dawley rats; 1 mg/kg (conjugate) or equivalent molar dose, 2 weeks of UUO
  tubular apoptosis in obstructed kidneys: significantly decrease tubular apoptosis
Sprague-Dawley rats; 1 mg/kg or 3 mg/kg (conjugate) or equivalent molar dose
  macrophage infiltration in obstructed kidneys: significantly decrease macrophage infiltration
Sprague-Dawley rats; 3 mg/kg
  tubular cell proliferation at the 3 mg/kg dose: further decreased
Sprague-Dawley rats; 14 days UUO
  trichrome staining (fibrosis score), cortex of obstructed kidney: 0-trace
  trichrome staining (fibrosis score), medulla of obstructed kidney: tr—1+
Sprague-Dawley rats; RT-PCR
  HO-1 expression in the obstructed kidney: decrease HO-1 expression
Sprague-Dawley rats; rat, in vivo
  medullary fibrosis: decrease medullary fibrosis
  number of 8-OH dG positive cells: significantly reduced
  renal tubular proliferation in obstructed kidneys (PCNA): significant decrease in renal tubular proliferation
